Test results taken from the supplement of paper PMC10307832.

Columns and labels:
Experiment in all cases: relative viability (nuclei count vs DMSO), 5 days (fraction); higher = more cells survive
VE-821 + Bortezomib = compound: CS(=O)(=O)c1ccc(-c2cnc(N)c(C(=O)Nc3ccccc3)n2)cc1 [VE-821] + CC(C)C[C@H](NC(=O)[C@H](Cc1ccccc1)NC(=O)c1cnccn1)B(O)O [Bortezomib] (partner 0.002 µM)
How it was run: (§1)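 Values are medians from duplicate plates. Each reflects relative viability, defined as the nuclei count of treated wells over that of vehicle wells. Lung cancer cell lines in 1536-well plates were pin-tool dosed one day after seeding with one drug alone or with a fixed anchor-drug dose plus five library-drug doses (not always all listed) in √10 steps, then fixed, stained and imaged at 4× after 5 days.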

Vismodegib + Dasatinib = compound: CS(=O)(=O)c1ccc(C(=O)Nc2ccc(Cl)c(-c3ccccn3)c2)c(Cl)c1 [Vismodegib] + Cc1nc(Nc2ncc(C(=O)Nc3c(C)cccc3Cl)s2)cc(N2CCN(CCO)CC2)n1 [Dasatinib] (partner 0.075 µM)
How it was run: as §1

Vismodegib + Bortezomib = compound: CS(=O)(=O)c1ccc(C(=O)Nc2ccc(Cl)c(-c3ccccn3)c2)c(Cl)c1 [Vismodegib] + CC(C)C[C@H](NC(=O)[C@H](Cc1ccccc1)NC(=O)c1cnccn1)B(O)O [Bortezomib] (partner 0.002 µM)
How it was run: as §1

Vismodegib + Crizotinib = compound: CS(=O)(=O)c1ccc(C(=O)Nc2ccc(Cl)c(-c3ccccn3)c2)c(Cl)c1 [Vismodegib] + C[C@@H](Oc1cc(-c2cnn(C3CCNCC3)c2)cnc1N)c1c(Cl)ccc(F)c1Cl [Crizotinib] (partner 1 µM)
How it was run: as §1

| Cell Line | relative viability (VE-821 + Bortezomib; first compound 0.08 µM) | relative viability (VE-821 + Bortezomib; first compound 0.253 µM) | relative viability (VE-821 + Bortezomib; first compound 0.8 µM) | relative viability (VE-821 + Bortezomib; first compound 2.53 µM) | relative viability (VE-821 + Bortezomib; first compound 8 µM) | relative viability (Vismodegib + Dasatinib; first compound 0.08 µM) | relative viability (Vismodegib + Dasatinib; first compound 0.253 µM) | relative viability (Vismodegib + Dasatinib; first compound 0.8 µM) | relative viability (Vismodegib + Dasatinib; first compound 2.53 µM) | relative viability (Vismodegib + Dasatinib; first compound 8 µM) | relative viability (Vismodegib + Bortezomib; first compound 0.08 µM) | relative viability (Vismodegib + Bortezomib; first compound 0.253 µM) | relative viability (Vismodegib + Bortezomib; first compound 0.8 µM) | relative viability (Vismodegib + Bortezomib; first compound 2.53 µM) | relative viability (Vismodegib + Bortezomib; first compound 8 µM) | relative viability (Vismodegib + Crizotinib; first compound 0.08 µM) | relative viability (Vismodegib + Crizotinib; first compound 0.253 µM) | relative viability (Vismodegib + Crizotinib; first compound 0.8 µM) | relative viability (Vismodegib + Crizotinib; first compound 2.53 µM) | relative viability (Vismodegib + Crizotinib; first compound 8 µM) |
| --- | --- | --- | --- | --- | --- | --- | --- | --- | --- | --- | --- | --- | --- | --- | --- | --- | --- | --- | --- | --- |
| EMC-BAC-2 | 1.12 | 1.08 | 1.15 | 1.11 | 1.04 | 0.334 | 0.365 | 0.285 | 0.353 | 0.317 | 1.08 | 1.03 | 1.05 | 1.11 | 1.05 | 0.768 | 0.797 | 0.72 | 0.73 | 0.796 |
| NCI-H2009 | 0.952 | 0.967 | 0.993 | 1.07 | 0.814 | 0.286 | 0.261 | 0.234 | 0.3 | 0.344 | 0.947 | 0.986 | 0.976 | 0.967 | 1.04 | 0.94 | 1.05 | 1.13 | 1.01 | 1.12 |
| NCI-H460 | 1.51 | 1.05 | 0.977 | 0.823 | 0.248 | 0.575 | 0.507 | 0.533 | 0.482 | 0.533 | 1.13 | 0.929 | 1.19 | 0.998 | 1.2 | 0.985 | 0.925 | 1.04 | 0.936 | 0.999 |
| ABC-1 | 0.333 | 0.335 | 0.288 | 0.368 | 0.307 | 0.584 | 0.415 | 0.527 | 0.527 | 0.582 | 0.332 | 0.244 | 0.331 | 0.299 | 0.324 | 0.6 | 0.827 | 1.12 | 0.993 | 0.958 |
| 201T | 1.11 | 1.06 | 1.07 | 1.07 | 1.06 | 0.646 | 0.52 | 0.481 | 0.569 | 0.463 | 1.13 | 1.07 | 1.09 | 1.09 | 1.09 | 0.954 | 1.06 | 0.997 | 1.02 | 1.01 |
| NCI-H1993 | 1.25 | 0.869 | 0.967 | 1.16 | 0.812 | 0.499 | 0.763 | 0.562 | 0.565 | 0.554 | 1.03 | 1.24 | 0.983 | 1.05 | 1.08 | 0.995 | 0.958 | 0.768 | 0.851 | 0.906 |
| RERF-LC-KJ | 1.15 | 1.13 | 0.957 | 1.03 | 0.82 | 0.779 | 0.676 | 0.75 | 0.758 | 0.768 | 1.06 | 1.07 | 1.18 | 1.15 | 1.02 | 0.821 | 0.813 | 0.81 | 0.848 | 0.82 |
| NCI-H1755 | 1.01 | 0.95 | 0.941 | 0.898 | 0.79 | 0.423 | 0.392 | 0.412 | 0.448 | 0.441 | 0.903 | 0.947 | 1.05 | 0.966 | 1.01 | 0.817 | 0.842 | 0.964 | 0.839 | 0.859 |
| NCI-H1666 | 0.942 | 0.864 | 0.755 | 0.736 | 0.549 | 0.73 | 0.777 | 0.816 | 0.841 | 0.734 | 0.755 | 0.765 | 0.906 | 0.722 | 0.956 | 0.917 | 0.849 | 1.06 | 1 | 0.948 |
| NCI-H2085 | 1.04 | 0.929 | 0.892 | 1.12 | 0.98 | 0.26 | 0.244 | 0.22 | 0.217 | 0.213 | 1.08 | 0.985 | 1.06 | 1.1 | 1.02 | 0.867 | 0.873 | 0.854 | 0.826 | 0.83 |
| BEN | 0.872 | 0.759 | 0.992 | 1.03 | 0.712 | 0.385 | 0.399 | 0.337 | 0.315 | 0.296 | 0.574 | 0.787 | 0.819 | 0.846 | 0.885 | 0.779 | 0.927 | 0.807 | 0.934 | 0.986 |
| NCI-H661 | 0.885 | 0.953 | 0.767 | 0.895 | 0.72 | 0.807 | 0.815 | 0.897 | 0.892 | 0.856 | 0.821 | 0.806 | 0.756 | 0.837 | 0.829 | 0.961 | 0.94 | 1.05 | 0.93 | 1.01 |
| LCLC-97TM1 | 0.633 | 0.634 | 0.726 | 0.541 | 0.568 | 0.855 | 0.755 | 0.617 | 0.856 | 0.834 | 0.741 | 0.652 | 0.804 | 0.694 | 0.671 | – | – | 0.418 | – | 0.355 |
| HCC-827 | 1.01 | 0.996 | 1.04 | 1.12 | 1.08 | 0.361 | 0.263 | 0.297 | 0.268 | 0.293 | 1.05 | 1.06 | 0.982 | 1.14 | 0.985 | 0.893 | 0.888 | 0.985 | 0.908 | 0.887 |
| NCI-H596 | 1.21 | 1.02 | 1.08 | 1.09 | 1.09 | 0.568 | 0.566 | 0.585 | 0.625 | 0.556 | 0.923 | 1.09 | 0.976 | 1.18 | 1.05 | 0.986 | 0.966 | 0.929 | 1.02 | 0.965 |
| NCI-H1734 | 1.3 | 0.873 | 0.878 | 0.879 | 0.611 | 0.44 | 0.498 | 0.482 | 0.446 | 0.537 | 0.89 | 0.835 | 0.949 | 0.858 | 1.03 | 0.687 | 0.654 | 0.762 | 0.62 | 0.756 |
